Measurements published in patent US20250009763A1, “METHODS FOR EXTENDING LIFESPAN AND/OR DELAYING AGING” (priority 2023, published 2025).

Test system: yeast BY4741 (WT)
Assay: Micromanipulation assay of replicative lifespan (RLS)
Format: cell-based, Saccharomyces cerevisiae
Conditions: 25 μM; FIG. 1F
Method: The micromanipulation of the yeast cells was carried out as follows. Prior to analysis, yeast strains BY4741 (WT), BY4741-fob1Δ (fob1Δ), or BY4741-sir2Δfob1Δ (sir2Δfob1Δ) were plated onto fresh solid YEPD medium and grown at 30° C. for two days. Then, individual colonies were picked and grown in solid YEPD media containing: (1) dimethyl sulfoxide (DMSO), (2) 10, 25, or 50 μM PN6, or (3) 25 μM β-sitosterol at 30° C. overnight, and a small number of yeast cells were then plated onto a fresh YEPD plate for lifespan analysis. After overnight growth on the lifespan plates, the cells were arrayed on the plate using a micromanipulator and allowed to grow for approximately 3 hours. Virgin daughter cells were selected and subjected to lifespan analysis. In the lifespan experiments, the plates were incubated at 30° C. during the day and stored at 4° C. overnight. Each experiment consisted of more than 50 mother cells and was independently repeated three times.

CC[C@H](CC[C@@H](C)[C@H]1CC[C@H]2[C@@H]3CC=C4C[C@@H](O)CC[C@]4(C)[C@H]3CC[C@]12C)C(C)C [3-sitosterol, β-sitosterol]
extension of the RLS of yeast: not seen
